In series [1] the target is T1, Snake venom PLA2 (Agkistrodon piscivorus piscivorus) (Agkistrodon piscivorus piscivorus, UniProt P51972).
T1 construct: Purified snake-venom phospholipase A2; from tissue
T1 sequence (P51972 1-123): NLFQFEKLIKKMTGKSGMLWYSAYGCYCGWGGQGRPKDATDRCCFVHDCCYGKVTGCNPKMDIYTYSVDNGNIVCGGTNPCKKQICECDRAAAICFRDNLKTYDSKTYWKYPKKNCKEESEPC
In words: PLA2-controlled release of calcein across non-hydrolysable D-O-SPC target membrane (carrier liposomes or micelles). In kind it is biochemical. The following applies: carrier liposomes 25 μM; 25 nM PLA2; 37° C.; FIG. 12a. Here is the method:
Multilamellar model membrane target liposomes were made in the presence of fluorescent calcein in a self-quenching concentration of 20 mM by hydrating a film of 1,2-O-dioctadecyl-sn-glycero-3-phosphatidylcholines (D-O-SPC) in a HEPES buffer solution at pH=7.5 for one hour at 10° C. above the phase transition temperature (Tm=55° C.). […] The unilamellar liposomes were rapidly cooled to a temperature below the transition temperature, and the calcein-containing liposomes were separated from free calcein using a chromatographic column packed with Sephadex G-50. […] Calcein release from the target liposomes is determined by measuring the fluorescent intensity at 520 nm after excitation at 492 nm.
Unilamellar liposomes were made by extruding the multilamellar liposomes ten times through two stacked 100 nm polycarbonate filters.

The conditions of series [2]: i.v., 50 mg/kg. The protocol:
Groups of mice (n=5/group; weight 18-22 g) were treated i.v. with buffer (PBS), ET-18-OCH3 (50 mg/kg), and liposomes composed of 1-O-DPPC with 5 mol % 1-O-DPPE-PEG2000 (68.7 and 137.5 mg/kg). 30 min after injection, 100 μl blood was collected into heparinised tubes directly from decapitated, CO2-anesthetised mice. The blood was centrifuged at 500×G for 10 min, and plasma was removed and stored at −20° C. until analysed.
25 μl plasma was mixed with 2,5 ml PBS or 2.5 ml 10% triton X-100.

Series [3] deals with human red blood cells (RBC). In words: Hemolysis assay. The following applies: 37° C., 20 hours, FIG. 6.
Protocol: Briefly, each sample was serially diluted with phosphate buffered saline (PBS), and 0.5 ml of each dilute suspension was mixed with 0.5 ml washed human red blood cells (RBC) [4% in PBS (v/v)]. Sample and standard were placed in a 37° C. incubator and agitated for 20 hours. Tubes were centrifuged at low speed (2000×G) for 10 minutes and 200 μl of the supernatant was quantitated by absorbance at 550 nm. 100 percent hemolysis was defined as the maximum amount of hemolysis obtained from the detergent Triton X-100.
The lipids were hydrated in phosphate buffered saline (PBS). 1-O-octadecyl-2-O-methyl-sn-glycero-3-phosphocholine (ET-18-OCH3) in PBS was included in the assay as a reference.
Briefly, each sample was serially diluted with PBS, and 0.5 ml of each dilute suspension of 1-O-DPPC liposomes were mixed with 0.5 ml washed human red blood cells (RBC) [4% in PBS (v/v)]. For controls, 0.5 ml of the red blood cell suspension was mixed with either 0.5 ml buffer solution (negative hemolysis control) or 0.5 ml water (positive hemolysis control). Samples and standard were placed in a 37° C. incubator and agitated for 20 hours. Tubes were centrifuged at low speed (2000×G) for 10 minutes to form RBCs pellets. 200 μl of the supernatant was quantitated by absorbance at 550 nm using a Perkin-Elmer 320 scanning spectrophotometer. […]
The test system of another series is extracellular PLA2. In words: Effect of cholesterol incorporated into liposomes on extracellular PLA2 activity (data not shown). Format: biochemical. An excerpt:
Short-chain phospholipids, such as didecanoyl phosphatidylcholine (DCPC), activate extracellular PLA2.

Series [4] in a line: Calcein release across target membrane on adding lyso-phospholipid and fatty acid, in the absence of PLA2. The following applies: target membranes 25 μM; 39° C.; pH 7.5; FIG. 13.
Protocol: Total release after 20 min of the fluorescent model drug and/or contrast agent calcein across the target membrane as a function of adding increasing amounts of lyso-palmitoyl phospholipid and palmitic acid, separately, and in a 1:1 mixture. The concentration of the target membranes is 25 μM in a HEPES buffer with pH=7.5 at a temperature of 39° C.
The experimental model system consists of bare liposomes, polymer-coated liposome carrier and a model target membrane. The carrier is a 100 nm unilamellar liposome made of dipalmitoyl phosphatidylcholine lipids (DPPC) with 2.5 mol % lipopolymer of the type dipalmitoyl phosphatidylethanolamine (DPPE)-PEG2000. The target membrane is another liposome made of 1,2-O-dioctadecyl-sn-glycero-phosphatidylcholine (D-O-SPC) which is a phospholipid where the acyl linkages of the stearoyl chains are ether bonds. In contrast to DPPC, D-O-SPC is inert towards PLA2-catalysed hydrolysis thereby mimicking the stability of an intact target cell membrane toward degradation by its own enzymes. […] The permeation of calcein across the D-O-SPC target membrane is subsequently monitored by the increase in fluorescence. […]
Series [5] has as its target T2, phospholipase A2 (A. piscivorus piscivorus) (Agkistrodon piscivorus piscivorus, UniProt P51972).
T2 sequence (P51972 1-123): T1 sequence (P51972 1-123)
The following applies: 0.150 mM micelles, 150 nM PLA2, 45° C. Here is the method:
The hydrolysis of micelles composed DSPE-PEG750 was followed by analysis of the amount of stearic acid generated. The catalytic reaction was initiated by adding 8.9 μL of a 42 μM PLA2 (150 nM) stock solution to 2.5 ml a thermostated micelle suspension of DSPE-PEG750 (0.150 mM) equilibrated at 45° C. for 600 seconds prior to addition of PLA2. The characteristic burst behaviour of PLA2 towards the micelles is signalled by a sudden increase in the intrinsic fluorescence from PLA2 at 340 nm after excitation at 285 nm followed by a concomitant decrease in the 90° light scattering from the lipid suspension (Hønger et al., Biochemistry 35, 9003-9006). Samples for HPLC analysis of the amount of stearic acid generated were taken before adding PLA2 and 100 sec after the observed lag-time. […] HPLC analysis was made using a 5 μm diol column, a mobile phase composed of chloroform/methanol/water (730:230:30, v/v) and an evaporative light scattering detector (see example 2).

Entries after “also recorded” stand apart in the source; their conditions may differ.

Turning to `CCCCCCCCCC(=O)OC[C@H](COP(=O)([O-])OCC[N+](C)(C)C)OC(=O)CCCCCCCCC` [DCPC, didecanoyl phosphatidylcholine], in series [1], the “rate of calcein release across target membrane versus bare DPPC carriers” value is given as “very fast; also recorded: further augmentation of the rate of release”.

With `CCCCCCCCCCCCCCCCCCOC[C@H](COP(=O)([O-])OCC[N+](C)(C)C)OC` [ET-18-OCH3], in series [2], the “outcome of treated mice (in words)” value is listed as “died within the 30 minutes period”. Moreover, the “hemolysis at low concentrations” value in series [3] is “significant degree of hemolysis”.

In the case of `CC(C)CCC[C@@H](C)[C@H]1CC[C@H]2[C@@H]3CC=C4C[C@@H](O)CC[C@]4(C)[C@H]3CC[C@]12C` [cholesterol], the figures for the “effect on extracellular PLA2” value with extracellular PLA2 (large amount (≈20 mol %) incorporated into liposomes) and in the series with extracellular PLA2 (small amount (≈3 mol %)) were “deactivated” and “activates”, respectively.

In the case of `CCCCCCCCCCCCCCCC(=O)O` [fatty acid, palmitic acid], the “rate of calcein release across target membrane in the absence of PLA2” value in series [4] is reported as “increased rate of calcein release”.

Regarding “di-octadecanoyl-sn-glycero-3-phosphoethanolamine-N-[methoxy(polyethylene glycol)-750 [DSPE-PEG750]”, the “percentage hydrolysis of DSPE-PEG750 to lyso-SPE-PEG750 and stearic acid” value in series [5] (100 sec after lag-time) was 100%. In addition, in series [5], the observed lag time stood at 10 s.

Values taken from patent US7368254B2, “Lipid-based systems for targeting diagnostic agents” (Liplasome Pharma A/S, priority 2000, dated 2008).
